From the NIST ThermoML archive (doi:10.1021/je020131a)

Legend:
[1] = xn = mol fraction of the nth substance listed; settings: 101.3 kPa, Liquid, Falling or rolling sphere viscometry
[2] = Liquid; for viscosity: 101.3 kPa, Falling or rolling sphere viscometry

COC(=O)OC [dimethyl carbonate] + C1CCCCC1
[1]
Settings	viscosity [mPa·s]
293.15 K, x1 = 0.0495	0.886
293.15 K, x1 = 0.0987	0.814
293.15 K, x1 = 0.2078	0.709
293.15 K, x1 = 0.2961	0.66
293.15 K, x1 = 0.3974	0.626
293.15 K, x1 = 0.5014	0.608
293.15 K, x1 = 0.6002	0.6
293.15 K, x1 = 0.7028	0.593
293.15 K, x1 = 0.7994	0.59
293.15 K, x1 = 0.9017	0.597
293.15 K, x1 = 0.9513	0.609
293.15 K, x1 = 1	0.626
298.15 K, x1 = 0.0378	0.833
298.15 K, x1 = 0.0808	0.776
298.15 K, x1 = 0.1764	0.681
298.15 K, x1 = 0.2896	0.619
298.15 K, x1 = 0.388	0.587
298.15 K, x1 = 0.4938	0.567
298.15 K, x1 = 0.5908	0.557
298.15 K, x1 = 0.6864	0.553
298.15 K, x1 = 0.7918	0.555
298.15 K, x1 = 0.8976	0.561
298.15 K, x1 = 0.9503	0.572
298.15 K, x1 = 1	0.585
303.15 K, x1 = 0.0391	0.758
303.15 K, x1 = 0.0931	0.703
303.15 K, x1 = 0.1875	0.632
303.15 K, x1 = 0.2908	0.581
303.15 K, x1 = 0.3897	0.545
303.15 K, x1 = 0.4962	0.522
303.15 K, x1 = 0.5958	0.508
303.15 K, x1 = 0.6909	0.504
303.15 K, x1 = 0.7975	0.507
303.15 K, x1 = 0.8912	0.522
303.15 K, x1 = 0.9441	0.528
303.15 K, x1 = 1	0.536
313.15 K, x1 = 0.101	0.605
313.15 K, x1 = 0.1482	0.574
313.15 K, x1 = 0.2563	0.524
313.15 K, x1 = 0.3646	0.495
313.15 K, x1 = 0.4661	0.477
313.15 K, x1 = 0.572	0.468
313.15 K, x1 = 0.6633	0.465
313.15 K, x1 = 0.7699	0.47
313.15 K, x1 = 0.8688	0.479
313.15 K, x1 = 0.9757	0.491
313.15 K, x1 = 0.9935	0.493
313.15 K, x1 = 1	0.494

CCCCCC [hexane]
[2]
Settings	viscosity [mPa·s]
293.15 K	0.313
298.15 K	0.301
303.15 K	0.282
313.15 K	0.258

Settings	mass density [kg/m3]
[2], 298.15 K, 101.33 kPa, Vibrating tube method	654.8

C1CCCCC1 [cyclohexane] + COC(=O)OC
[1], x2 = 0
Settings	viscosity [mPa·s]
293.15 K	0.976
298.15 K	0.894
303.15 K	0.813
313.15 K	0.697

CCCCCC [hexane] + COC(=O)OC
[1], x2 = 0
Settings	viscosity [mPa·s]
293.15 K	0.313
298.15 K	0.301
303.15 K	0.282
313.15 K	0.258

CCCCCCCC [octane] + CCOC(=O)OCC
[1], x2 = 0
Settings	viscosity [mPa·s]
293.15 K	0.545
298.15 K	0.513
303.15 K	0.484
313.15 K	0.434

CCCCCCCC [octane] + COC(=O)OC
[1], x2 = 0
Settings	viscosity [mPa·s]
293.15 K	0.545
298.15 K	0.513
303.15 K	0.484
313.15 K	0.434

CCCCCC [hexane] + CCOC(=O)OCC
[1], x2 = 0
Settings	viscosity [mPa·s]
293.15 K	0.313
298.15 K	0.301
303.15 K	0.282
313.15 K	0.258

COC(=O)OC [dimethyl carbonate] + CCCCCCCC
[1]
Settings	viscosity [mPa·s]
293.15 K, x1 = 0.0513	0.532
293.15 K, x1 = 0.0997	0.524
293.15 K, x1 = 0.2027	0.508
293.15 K, x1 = 0.3063	0.506
293.15 K, x1 = 0.3994	0.502
293.15 K, x1 = 0.5123	0.507
293.15 K, x1 = 0.6078	0.512
293.15 K, x1 = 0.7137	0.524
293.15 K, x1 = 0.8055	0.541
293.15 K, x1 = 0.9061	0.575
293.15 K, x1 = 0.9516	0.596
293.15 K, x1 = 1	0.626
298.15 K, x1 = 0.0558	0.504
298.15 K, x1 = 0.096	0.498
298.15 K, x1 = 0.1488	0.489
298.15 K, x1 = 0.2289	0.478
298.15 K, x1 = 0.2947	0.477
298.15 K, x1 = 0.4216	0.474
298.15 K, x1 = 0.4883	0.475
298.15 K, x1 = 0.5931	0.479
298.15 K, x1 = 0.6867	0.491
298.15 K, x1 = 0.7879	0.509
298.15 K, x1 = 0.8873	0.541
298.15 K, x1 = 0.9502	0.561
298.15 K, x1 = 1	0.585
303.15 K, x1 = 0.0519	0.478
303.15 K, x1 = 0.0827	0.474
303.15 K, x1 = 0.1947	0.457
303.15 K, x1 = 0.2829	0.452
303.15 K, x1 = 0.3948	0.45
303.15 K, x1 = 0.4942	0.448
303.15 K, x1 = 0.5964	0.45
303.15 K, x1 = 0.6983	0.46
303.15 K, x1 = 0.7886	0.473
303.15 K, x1 = 0.8946	0.5
303.15 K, x1 = 0.9545	0.52
303.15 K, x1 = 1	0.536
313.15 K, x1 = 0.0512	0.432
313.15 K, x1 = 0.1005	0.43
313.15 K, x1 = 0.186	0.419
313.15 K, x1 = 0.301	0.413
313.15 K, x1 = 0.4072	0.409
313.15 K, x1 = 0.5002	0.41
313.15 K, x1 = 0.6042	0.417
313.15 K, x1 = 0.709	0.43
313.15 K, x1 = 0.7993	0.446
313.15 K, x1 = 0.8465	0.459
313.15 K, x1 = 0.9524	0.485
313.15 K, x1 = 1	0.494

CCOC(=O)OCC [diethyl carbonate] + CCCCCCCC
[1]
Settings	viscosity [mPa·s]
293.15 K, x1 = 0.0504	0.535
293.15 K, x1 = 0.099	0.528
293.15 K, x1 = 0.1947	0.529
293.15 K, x1 = 0.2939	0.535
293.15 K, x1 = 0.3911	0.55
293.15 K, x1 = 0.4965	0.574
293.15 K, x1 = 0.6012	0.604
293.15 K, x1 = 0.6971	0.641
293.15 K, x1 = 0.7996	0.684
293.15 K, x1 = 0.8871	0.727
293.15 K, x1 = 0.9502	0.763
293.15 K, x1 = 1	0.795
298.15 K, x1 = 0.0568	0.514
298.15 K, x1 = 0.1069	0.51
298.15 K, x1 = 0.1985	0.511
298.15 K, x1 = 0.2979	0.515
298.15 K, x1 = 0.3968	0.528
298.15 K, x1 = 0.5035	0.551
298.15 K, x1 = 0.605	0.578
298.15 K, x1 = 0.7054	0.614
298.15 K, x1 = 0.8042	0.653
298.15 K, x1 = 0.9035	0.698
298.15 K, x1 = 0.9549	0.728
298.15 K, x1 = 1	0.749
303.15 K, x1 = 0.0504	0.485
303.15 K, x1 = 0.1002	0.485
303.15 K, x1 = 0.2035	0.486
303.15 K, x1 = 0.2953	0.494
303.15 K, x1 = 0.3942	0.507
303.15 K, x1 = 0.5035	0.525
303.15 K, x1 = 0.6019	0.55
303.15 K, x1 = 0.7055	0.58
303.15 K, x1 = 0.8011	0.613
303.15 K, x1 = 0.8999	0.654
303.15 K, x1 = 0.9498	0.677
303.15 K, x1 = 1	0.699
313.15 K, x1 = 0.0495	0.436
313.15 K, x1 = 0.0984	0.44
313.15 K, x1 = 0.1957	0.448
313.15 K, x1 = 0.2957	0.459
313.15 K, x1 = 0.3958	0.472
313.15 K, x1 = 0.4982	0.488
313.15 K, x1 = 0.6036	0.508
313.15 K, x1 = 0.6992	0.529
313.15 K, x1 = 0.7994	0.554
313.15 K, x1 = 0.8992	0.586
313.15 K, x1 = 0.9502	0.608
313.15 K, x1 = 1	0.623

CCOC(=O)OCC [diethyl carbonate] + CCCCCC
[1]
Settings	viscosity [mPa·s]
293.15 K, x1 = 0.0576	0.318
293.15 K, x1 = 0.1106	0.326
293.15 K, x1 = 0.2219	0.353
293.15 K, x1 = 0.3358	0.388
293.15 K, x1 = 0.4303	0.422
293.15 K, x1 = 0.5384	0.471
293.15 K, x1 = 0.6357	0.524
293.15 K, x1 = 0.7334	0.588
293.15 K, x1 = 0.8246	0.652
293.15 K, x1 = 0.9171	0.721
293.15 K, x1 = 0.9589	0.757
293.15 K, x1 = 1	0.795
298.15 K, x1 = 0.0586	0.318
298.15 K, x1 = 0.1024	0.323
298.15 K, x1 = 0.2106	0.347
298.15 K, x1 = 0.305	0.37
298.15 K, x1 = 0.3592	0.389
298.15 K, x1 = 0.4259	0.412
298.15 K, x1 = 0.5719	0.475
298.15 K, x1 = 0.7051	0.546
298.15 K, x1 = 0.7965	0.605
298.15 K, x1 = 0.8894	0.67
298.15 K, x1 = 0.9095	0.688
298.15 K, x1 = 0.9794	0.737
298.15 K, x1 = 1	0.749
303.15 K, x1 = 0.0583	0.292
303.15 K, x1 = 0.0941	0.299
303.15 K, x1 = 0.1925	0.324
303.15 K, x1 = 0.2897	0.347
303.15 K, x1 = 0.3927	0.378
303.15 K, x1 = 0.5087	0.42
303.15 K, x1 = 0.6072	0.463
303.15 K, x1 = 0.7059	0.512
303.15 K, x1 = 0.8002	0.568
303.15 K, x1 = 0.8947	0.628
303.15 K, x1 = 0.9532	0.672
303.15 K, x1 = 1	0.699
313.15 K, x1 = 0.0502	0.264
313.15 K, x1 = 0.1001	0.278
313.15 K, x1 = 0.2001	0.295
313.15 K, x1 = 0.3008	0.318
313.15 K, x1 = 0.4021	0.344
313.15 K, x1 = 0.4972	0.371
313.15 K, x1 = 0.5992	0.41
313.15 K, x1 = 0.7005	0.454
313.15 K, x1 = 0.8096	0.509
313.15 K, x1 = 0.898	0.558
313.15 K, x1 = 0.9671	0.599
313.15 K, x1 = 1	0.623
